Source: the CheMixHub viscosity set

Assay: xn = mol fraction of the nth substance listed

COCCOCCO + CC1COC(=O)O1
298.15 K, 101.33 kPa
Settings | viscosity [mPa·s]
x1 = 0.0342 | 2.506
x1 = 0.0633 | 2.515
x1 = 0.0849 | 2.524
x1 = 0.1101 | 2.537
x1 = 0.1406 | 2.548
x1 = 0.1617 | 2.559
x1 = 0.1739 | 2.568
x1 = 0.2188 | 2.601
x1 = 0.2694 | 2.645
x1 = 0.3234 | 2.698
x1 = 0.3696 | 2.751
x1 = 0.3809 | 2.771
x1 = 0.4421 | 2.844
x1 = 0.4715 | 2.886
x1 = 0.5373 | 2.97
x1 = 0.5688 | 3.011
x1 = 0.6187 | 3.063
x1 = 0.6576 | 3.108
x1 = 0.7503 | 3.217
x1 = 0.7761 | 3.248
x1 = 0.7996 | 3.269
x1 = 0.8142 | 3.282
x1 = 0.8452 | 3.313
x1 = 0.9062 | 3.367
x1 = 0.9414 | 3.404
x2 = 0.0198 | 3.432

CCCCCCCCCCO + CCCO
viscosity [mPa·s], 101 kPa
Settings | 298.15 K | 308.15 K | 318.15 K
x2 = 0.05 | 10.52 | 7.206 | 5.14
x2 = 0.1 | 10.05 | 6.914 | 4.927
x2 = 0.15 | 9.562 | 6.633 | 4.716
x2 = 0.2 | 9.064 | 6.36 | 4.508
x2 = 0.25 | 8.557 | 6.093 | 4.306
x2 = 0.3 | 8.046 | 5.831 | 4.109
x2 = 0.35 | 7.534 | 5.572 | 3.921
x2 = 0.4 | 7.023 | 5.314 | 3.741
x2 = 0.45 | 6.517 | 5.058 | 3.572
x2 = 0.5 | 6.018 | 4.802 | 3.416
x2 = 0.55 | 5.529 | 4.547 | 3.275
x2 = 0.6 | 5.052 | 4.293 | 3.15
x2 = 0.65 | 4.589 | 4.04 | 3.044
x2 = 0.7 | 4.142 | 3.79 | 2.96
x2 = 0.75 | 3.712 | 3.543 | 2.9
x2 = 0.8 | 3.303 | 3.301 | 2.866
x2 = 0.85 | 2.915 | 3.065 | 2.862
x2 = 0.9 | 2.549 | 2.839 | 2.89
x2 = 0.95 | 2.207 | 2.624 | 2.953

Cc1ccc(N)cc1 + Oc1ccccc1
101 kPa
Settings | viscosity [mPa·s]
303.1 K, x2 = 0.43 | 7.57
303.1 K, x2 = 0.507 | 8.64
303.1 K, x2 = 0.619 | 9.42
303.1 K, x2 = 0.652 | 9.62
303.1 K, x2 = 0.741 | 8.94
313.05 K, x2 = 0.111 | 2.632
313.05 K, x2 = 0.2288 | 3.352
313.05 K, x2 = 0.3265 | 4.09
313.05 K, x2 = 0.4169 | 4.82
313.05 K, x2 = 0.4949 | 5.43
313.05 K, x2 = 0.5828 | 6.015
313.05 K, x2 = 0.6568 | 6.29
313.05 K, x2 = 0.737 | 6.27
313.05 K, x2 = 0.8217 | 5.915
313.05 K, x2 = 0.9089 | 5.38

CCN1CCCC1=O + O
101 kPa
Settings | viscosity [mPa·s]
298 K, x1 = 0.5 | 3.855
323 K, x1 = 0.9 | 1.435

CCCCCCCCCCO + CCCCCCCCO
viscosity [mPa·s], 101.8 kPa
Settings | x2 = 0.1199 | x2 = 0.3407 | x2 = 0.5487 | x2 = 0.7394 | x2 = 0.918
298.15 K | 11.14 | 10.21 | 9.324 | 8.588 | 7.888
308.15 K | 7.791 | 7.162 | 6.608 | 6.092 | 5.658
318.15 K | 5.571 | 5.156 | 4.78 | 4.438 | 4.135
